The target of this assay is T1, Syk (Homo sapiens, UniProt P43405).
T1 construct: purchased Carna Biosciences
As to the kind of experiment: Syk HTRF assay. Particulars: activity levels A-D, read-out: Activity Level (IC50 in the Syk HTRF assay). In kind it is biochemical. The procedure, abridged: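 Read-out is the 665 nm/615 nm time-resolved fluorescence ratio after EDTA stop and Eu-anti-phosphotyrosine plus streptavidin-DyLight 647 detection. Reaction ran 1 h at room temperature with start mix of 87.5 μM ATP and 80 nM substrate peptide in pH 7.6 HEPES/MgCl2 buffer.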
For `O[C@H]1CC[C@@H](Nc2cccc3nc(Nc4ccc(F)c(F)c4)nn23)CC1` [Example 311, cis-4-(2-(3,4-difluorophenylamino)-[1,2,4]triazolo[1,5-a]pyridin-5-ylamino)cyclohexanol], the IC50 (usually the concentration at which inhibition is half-maximal) was 250 to 500 nM. The same measure for `OCCNc1cc(-c2cccc3nc(Nc4ccc(C(F)(F)F)cc4)nn23)ccn1` [Example 312, 2-(4-(2-(4-(trifluoromethyl)phenylamino)-[1,2,4]triazolo[1,5-a]pyridin-5-yl)pyridin-2-ylamino)ethanol]: 0.005 to 250 nM; for `O[C@H]1CC[C@@H](Nc2cccc3nc(Nc4ccc(N5CCOCC5)nc4)nn23)CC1` [Example 313, cis-4-(2-(6-morpholinopyridin-3-ylamino)-[1,2,4]triazolo[1,5-a]pyridin-5-ylamino)cyclohexanol]: 0.005 to 250 nM. For `Cc1cc(C)cc(Nc2nc3cccc(N[C@H]4CC[C@@H](O)CC4)n3n2)c1` [Example 314, cis-4-(2-(3,5-dimethylphenylamino)-[1,2,4]triazolo[1,5-a]pyridin-5-ylamino0)cyclohexaol], the IC50 is 0.005 to 250 nM. For `OCCOc1cccc2nc(Nc3ccc(C(F)(F)F)cc3)nn12` [Example 315, 2-(2-(4-(trifluoromethyl)phenylamino)-[1,2,4]triazolo[1,5-a]pyridin-5-yloxy)ethanol], the IC50 was in the range of 1000 to 10000 nM. The same measure for `CNC(=O)c1cccc(Nc2nc3cccc(N[C@H]4CC[C@@H](O)CC4)n3n2)c1` [Example 316, cis-3-(5-(4-hydroxycyclohexylamino)-[1,2,4]triazolo[1,5-a]pyridin-2-ylamino)-N-methylbenzamide]: 250 to 500 nM. The same measure for `O=c1cc(Cc2cccc3nc(Nc4ccc(C(F)(F)F)cc4)nn23)cc[nH]1` [Example 317, 4-((2-(4-(trifluoromethyl)phenylamino)-[1,2,4]triazolo[1,5-a]pyridin-5-yl)methyl)pyridin-2(1H)-one]: 0.005 to 250 nM. The same measure for `NC(=O)c1cc(Nc2nc3cccc(N[C@H]4CC[C@@H](O)CC4)n3n2)ccc1F` [Example 318, cis-2-fluoro-5-(5-(4-hydroxycyclohexylamino)-[1,2,4]triazolo[1,5-a]pyridin-2-ylamino)benzamide]: 1000 to 10000 nM; for `O[C@H]1CC[C@@H](Nc2cccc3nc(Nc4ccc(F)cc4)nn23)CC1` [Example 319, cis-4-(2-(4-fluorophenylamino)-[1,2,4]triazolo[1,5-a]pyridin-5-ylamino)cyclohexanol]: 0.005 to 250 nM; for `Cc1cc(Nc2nc3cccc(N[C@H]4CC[C@@H](O)CC4)n3n2)ccc1F` [Example 320, cis-4-(2-(4-fluoro-3-methylphenylamino)-[1,2,4]triazolo[1,5-a]pyridin-5-ylamino)cyclohexanol]: 0.005 to 250 nM. Regarding `NCCCOc1cccc2nc(Nc3ccc(C(F)(F)F)cc3)nn12` [Example 321, 5-(3-aminopropoxy)-N-(4-(trifluoromethyl)phenyl)-[1,2,4]triazolo[1,5-a]pyridin-2-amine], the IC50 lay within 1000 to 10000 nM. On to `O[C@H]1CC[C@@H](Nc2cccc3nc(Nc4cccnc4F)nn23)CC1` [Example 322, cis-4-(2-(2-fluoropyridin-3-ylamino)-[1,2,4]triazolo[1,5-a]pyridin-5-ylamino)cyclohexanol], for which the IC50 fell in the range of 1000 to 10000 nM. For `OC[C@H]1CCN(Cc2cccc3nc(Nc4ccc(C(F)(F)F)cc4)nn23)C1` [Example 324, (S)-(1-((2-(4-(trifluoromethyl)phenylamino)-[1,2,4]triazolo[1,5-a]pyridin-5-yl)methyl)pyrrolidin-3-yl)methanol] the value was 1000 to 10000 nM; for `CNC(=O)c1ccc(Nc2nc3cccc(-c4cccnc4)n3n2)cc1` [Example 325, N-methyl-4-(5-(pyridin-3-yl)-[1,2,4]triazolo[1,5-a]pyridin-2-ylamino)benzamide], 500 to 1000 nM; for `OC[C@@H]1CCN(c2cccc3nc(Nc4ccc(C(F)(F)F)cc4)nn23)C1` [Example 326, (R)-(1-(2-(4-(trifluoromethyl)phenylamino)-[1,2,4]triazolo[1,5-a]pyridin-5-yl)pyrrolidin-3-yl)methanol], 250 to 500 nM.

As for `OC[C@H]1CCN(c2cccc3nc(Nc4ccc(C(F)(F)F)cc4)nn23)C1` [Example 327, (S)-(1-(2-(4-(trifluoromethyl)phenylamino)-[1,2,4]triazolo[1,5-a]pyridin-5-yl)pyrrolidin-3-yl)methanol], the IC50 is 250 to 500 nM.

On to `C[C@H](CO)Nc1cccc2nc(Nc3ccc(C(F)(F)F)cc3)nn12` [Example 328, (R)-2-(2-(4-(trifluoromethyl)phenylamino)-[1,2,4]triazolo[1,5-a]pyridin-5-ylamino)propan-1-ol], for which the IC50 was 1000 to 10000 nM. For `C[C@@H](CO)Nc1cccc2nc(Nc3ccc(C(F)(F)F)cc3)nn12` [Example 329, (S)-2-(2-(4-(trifluoromethyl)phenylamino)-[1,2,4]triazolo[1,5-a]pyridin-5-ylamino)propan-1-ol] the value was 500 to 1000 nM. The same measure for `CC(C)Nc1cccc2nc(Nc3ccc(C(F)(F)F)cc3)nn12` [Example 330, N^5-isopropyl-N^2-(4-(trifluoromethyl)phenyl)-[1,2,4]triazolo[1,5-a]pyridin-2,5-diamine]: 1000 to 10000 nM. The same measure for `Oc1cc(Nc2nc3cccc(N[C@H]4CC[C@@H](O)CC4)n3n2)ccn1` [Example 331, cis-4-(5-(4-hydroxycyclohexylamino)-[1,2,4]triazolo[1,5-a]pyridin-2-ylamino)pyridin-2-ol]: 1000 to 10000 nM.

As to `O[C@@H]1CCN(c2cccc3nc(Nc4ccc(C(F)(F)F)cc4)nn23)C1` [Example 332, (R)-1-(2-(4-(trifluoromethyl)phenylamino)-[1,2,4]triazolo[1,5-a]pyridin-5-yl)pyrrolidin-3-ol], the IC50 is 500 to 1000 nM.

Regarding `O[C@H]1CCCC[C@@H]1Nc1cccc2nc(Nc3ccc(C(F)(F)F)cc3)nn12` [Example 334, (1S,2S)-2-(2-(4-(trifluoromethyl)phenylamino)-[1,2,4]triazolo[1,5-a]pyridin-5-ylamino)cyclohexanol], the IC50 was 1000 to 10000 nM. The same measure for `O[C@H]1CCN(Cc2cccc3nc(Nc4ccc(C(F)(F)F)cc4)nn23)C1` [Example 336, (S)-1-((2-(4-(trifluoromethyl)phenylamino)-[1,2,4]triazolo[1,5-a]pyridin-5-yl)methyl)pyrrolidin-3-ol]: 1000 to 10000 nM. For `NC(=O)c1cccc(Nc2nc3cccc(N[C@H]4CC[C@@H](O)CC4)n3n2)c1` [Example 337, cis-3-(5-(4-hydroxycyclohexylamino)-[1,2,4]triazolo[1,5-a]pyridin-2-ylamino)benzamide] the value was 250 to 500 nM; for `COc1cccc(Nc2nc3cccc(N[C@H]4CC[C@@H](O)CC4)n3n2)c1` [Example 338, cis-4-(2-(3-methoxyphenylamino)-[1,2,4]triazolo[1,5-a]pyridin-5-ylamino)cyclohexanol], 0.005 to 250 nM; for `COc1ccccc1Nc1nc2cccc(N[C@H]3CC[C@@H](O)CC3)n2n1` [Example 339, cis-4-(2-(2-methoxyphenylamino)-[1,2,4]triazolo[1,5-a]pyridin-5-ylamino)cyclohexanol], 1000 to 10000 nM. In the case of `NC(=O)c1ccc(Nc2nc3cccc(N[C@H]4CC[C@@H](O)CC4)n3n2)c(F)c1` [Example 340, cis-3-fluoro-4-(5-(4-hydroxycyclohexylamino)-[1,2,4]triazolo[1,5-a]pyridin-2-ylamino)benzamide], the IC50 fell in the range of 1000 to 10000 nM. For `N#Cc1ccc(Nc2nc3cccc(N[C@H]4CC[C@@H](O)CC4)n3n2)c(F)c1` [Example 341, cis-3-fluoro-4-(5-(4-hydroxycyclohexylamino)-[1,2,4]triazolo[1,5-a]pyridin-2-ylamino)benzonitrile] the value was 1000 to 10000 nM.

With `COc1cccc(Nc2nc3cccc(N[C@H]4CC[C@@H](O)CC4)n3n2)n1` [Example 342, cis-4-(2-(6-methoxypyridin-2-ylamino)-[1,2,4]triazolo[1,5-a]pyridin-5-ylamino)cyclohexanol], the IC50 lay in the range of 1000 to 10000 nM. As for `Cc1ccc(Nc2nc3cccc(N[C@H]4CC[C@@H](O)CC4)n3n2)cc1` [Example 343, cis-4-(2-(p-tolylamino)-[1,2,4]triazolo[1,5-a]pyridin-5-ylamino)cyclohexanol], the IC50 lay within 0.005 to 250 nM. The same measure for `NC(=O)[C@H]1CC[C@@H](Oc2cccc3nc(Nc4ccc(C(F)(F)F)cc4)nn23)CC1` [Example 344, cis-4-(2-(4-(trifluoromethyl)phenylamino)-[1,2,4]triazolo[1,5-a]pyridin-5-yloxy)cyclohexanecarboxamide]: 500 to 1000 nM; for `OC1CCN(c2cccc3nc(Nc4ccc(C(F)(F)F)cc4)nn23)CC1` [Example 345, 1-(2-(4-(trifluoromethyl)phenylamino)-[1,2,4]triazolo[1,5-a]pyridin-5-yl)piperidin-4-ol]: 500 to 1000 nM; for `OCC1CCN(c2cccc3nc(Nc4ccc(C(F)(F)F)cc4)nn23)CC1` [Example 346, (1-(2-(4-(trifluoromethyl)phenylamino)-[1,2,4]triazolo[1,5-a]pyridin-5-yl)piperidin-4-yl)methanol]: 1000 to 10000 nM. The same measure for `NC(=O)c1ccc(Nc2nc3cccc(N[C@H]4CC[C@@H](O)CC4)n3n2)cc1F` [Example 347, cis-2-fluoro-4-(5-(4-hydroxycyclohexylamino)-[1,2,4]triazolo[1,5-a]pyridin-2-ylamino)benzamide]: 0.005 to 250 nM; for `N#Cc1cccc(Nc2nc3cccc(N[C@H]4CC[C@@H](O)CC4)n3n2)c1` [Example 348, cis-3-(5-(4-hydroxycyclohexylamino)-[1,2,4]triazolo[1,5-a]pyridin-2-ylamino)benzonitrile]: 250 to 500 nM. For `O[C@H]1CC[C@@H](Nc2cccc3nc(Nc4ccccn4)nn23)CC1` [Example 349, cis-4-(2-(pyridin-2-ylamino)-[1,2,4]triazolo[1,5-a]pyridin-5-ylamino)cyclohexanol] the value was 1000 to 10000 nM.
